In PubChem BioAssay (NCI):
Several values for one entry are separate records, joined by “and”; a condition that tells them apart may be missing. Equal values may be shown once.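 Dose response: 5 concentrations. Exposure: 48 h. Format: 96-well plates. Endpoint: linear interpolation; highest concentration if not reached. Abbreviation: GI50, concentration required for 50% inhibition of growth. TGI denotes the concentration required for complete inhibition of growth.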

How the values were obtained:
Assay in all cases: DTP human tumour cell line panel, 48 h
EKVX NSCLC = tested on: EKVX NSCLC
CAKI-1 renal = tested on: CAKI-1 renal
OVCAR-4 ovarian = tested on: OVCAR-4 ovarian
HL-60(TB) leukemia = tested on: HL-60(TB) leukemia
HCT-15 colon = tested on: HCT-15 colon
SK-OV-3 ovarian = tested on: SK-OV-3 ovarian
HOP-62 NSCLC = tested on: HOP-62 NSCLC
SF-268 CNS = tested on: SF-268 CNS
A498 renal = tested on: A498 renal
OVCAR-8 ovarian = tested on: OVCAR-8 ovarian

SMILES: CC1=C(O)C(=O)C2C(=O)C1C(C)C2c1ccc(Cl)cc1 (configuration not stated)
- TGI (EKVX NSCLC): > 100 µM
- TGI (CAKI-1 renal): > 100 µM
- TGI (OVCAR-4 ovarian): > 100 µM
- TGI (HL-60(TB) leukemia): > 100 µM
- TGI (HCT-15 colon): > 100 µM
- TGI (SK-OV-3 ovarian): > 100 µM
- TGI (HOP-62 NSCLC): > 100 µM
- TGI (SF-268 CNS): > 100 µM
- TGI (A498 renal): > 100 µM
- TGI (OVCAR-8 ovarian): > 100 µM

SMILES: N#C/C(=C\c1cccc(O)c1)C(N)=O
- TGI (EKVX NSCLC): > 100 µM
- TGI (CAKI-1 renal): > 100 µM
- TGI (OVCAR-4 ovarian): > 100 µM
- TGI (HL-60(TB) leukemia): 43.5 µM
- TGI (HCT-15 colon): > 100 µM
- TGI (SK-OV-3 ovarian): > 100 µM
- TGI (HOP-62 NSCLC): > 100 µM
- TGI (SF-268 CNS): > 100 µM
- TGI (A498 renal): > 100 µM
- TGI (OVCAR-8 ovarian): > 100 µM

SMILES: CC1S(=O)(=O)OCCOS1(=O)=O
- TGI (EKVX NSCLC): > 100 µM
- TGI (CAKI-1 renal): > 100 µM
- TGI (OVCAR-4 ovarian): > 100 µM
- TGI (HL-60(TB) leukemia): 87.1 µM
- TGI (HCT-15 colon): > 100 µM
- TGI (SK-OV-3 ovarian): > 100 µM
- TGI (HOP-62 NSCLC): > 100 µM
- TGI (SF-268 CNS): > 100 µM
- TGI (A498 renal): > 100 µM
- TGI (OVCAR-8 ovarian): > 100 µM

SMILES: CC/C=C\C/C=C\C/C=C\CCCCCCCC(=O)OCC
- TGI (EKVX NSCLC): > 100 µM
- TGI (CAKI-1 renal): > 100 µM
- TGI (OVCAR-4 ovarian): > 100 µM
- TGI (HL-60(TB) leukemia): > 100 µM
- TGI (SK-OV-3 ovarian): > 100 µM
- TGI (HOP-62 NSCLC): > 100 µM
- TGI (SF-268 CNS): > 100 µM
- TGI (A498 renal): > 100 µM
- TGI (OVCAR-8 ovarian): > 100 µM

SMILES: C=C(C)C(=O)O[C@H]1[C@H]2[C@H](OC(=O)[C@H]2C)[C@H](O)[C@@H](C)[C@@H]2C=CC(=O)[C@]21C
- TGI (EKVX NSCLC): 14.8 µM
- TGI (CAKI-1 renal): 5.66 µM
- TGI (OVCAR-4 ovarian): 19.9 µM
- TGI (HL-60(TB) leukemia): 2.86 µM
- TGI (HCT-15 colon): 6.38 µM
- TGI (SK-OV-3 ovarian): 18.3 µM
- TGI (HOP-62 NSCLC): 34.1 µM
- TGI (SF-268 CNS): 12.6 µM
- TGI (A498 renal): 6.56 µM
- TGI (OVCAR-8 ovarian): 4.07 µM

SMILES: CCOC(=O)NN1C(=O)C(=P(c2ccccc2)(c2ccccc2)c2ccccc2)C(C(=O)OCC)=C1C
- TGI (EKVX NSCLC): > 100 µM
- TGI (CAKI-1 renal): > 100 µM
- TGI (OVCAR-4 ovarian): > 100 µM
- TGI (HL-60(TB) leukemia): > 100 µM
- TGI (HCT-15 colon): > 100 µM
- TGI (SK-OV-3 ovarian): > 100 µM
- TGI (HOP-62 NSCLC): > 100 µM
- TGI (SF-268 CNS): > 100 µM
- TGI (A498 renal): > 100 µM
- TGI (OVCAR-8 ovarian): > 100 µM

SMILES: CCOc1ccc(NCc2cc(OC)c(OC)c(OC)c2)cc1
- TGI (EKVX NSCLC): > 100 µM
- GI50 (CAKI-1 renal): 2.01 µM and 7.61 µM
- TGI (CAKI-1 renal): > 100 µM
- TGI (OVCAR-4 ovarian): > 100 µM
- TGI (HL-60(TB) leukemia): 19.2 µM and 33.8 µM
- TGI (HCT-15 colon): 45.9 µM and 32.7 µM
- TGI (SK-OV-3 ovarian): 22.8 µM and 24.8 µM
- TGI (HOP-62 NSCLC): > 36.6 µM and 24.7 µM
- TGI (SF-268 CNS): > 100 µM
- GI50 (A498 renal): 1.05 µM and 4.61 µM
- TGI (A498 renal): > 48 µM and 59.5 µM
- GI50 (OVCAR-8 ovarian): 5.75 µM and 2.31 µM
- TGI (OVCAR-8 ovarian): > 80.7 µM and 62.6 µM

SMILES: Cc1cc2c3ccccc3n(C)c2c2c1C(=O)C=CC2=O
- TGI (EKVX NSCLC): 19 µM
- TGI (CAKI-1 renal): 28.9 µM
- TGI (OVCAR-4 ovarian): 18.7 µM
- TGI (HL-60(TB) leukemia): > 68 µM
- TGI (HCT-15 colon): 29.2 µM
- TGI (SK-OV-3 ovarian): 53.4 µM
- TGI (HOP-62 NSCLC): 49.9 µM
- TGI (SF-268 CNS): 39.1 µM
- TGI (A498 renal): 35.5 µM
- TGI (OVCAR-8 ovarian): 62.7 µM

SMILES: C=C1CC[C@@H]2[C@](C)(COC(C)=O)[C@H](OC(C)=O)CC[C@@]2(C)[C@@H]1CC(Nc1ccc(S(=O)(=O)Nc2nccc(C)n2)cc1)C1=CCOC1=O (some centres not stated)
- GI50 (EKVX NSCLC): 13.9 µM
- TGI (EKVX NSCLC): 27.1 µM
- GI50 (CAKI-1 renal): 3.56 µM
- TGI (CAKI-1 renal): 12.5 µM
- GI50 (OVCAR-4 ovarian): 4.37 µM
- TGI (OVCAR-4 ovarian): 15.8 µM
- GI50 (HL-60(TB) leukemia): 2.1 µM
- TGI (HL-60(TB) leukemia): 5.63 µM
- GI50 (HCT-15 colon): 1.79 µM
- TGI (HCT-15 colon): 4.24 µM
- GI50 (SK-OV-3 ovarian): 12.7 µM
- TGI (SK-OV-3 ovarian): 25.3 µM
- GI50 (HOP-62 NSCLC): 10.3 µM
- TGI (HOP-62 NSCLC): 22.5 µM
- GI50 (SF-268 CNS): 6.19 µM
- TGI (SF-268 CNS): 20.9 µM
- GI50 (A498 renal): 14.8 µM
- TGI (A498 renal): 28.4 µM
- GI50 (OVCAR-8 ovarian): 2.61 µM
- TGI (OVCAR-8 ovarian): 8.56 µM

SMILES: CCc1cc(O)c(Cl)c(C)c1Cl
- TGI (EKVX NSCLC): 33.7 µM
- TGI (CAKI-1 renal): 32.7 µM
- TGI (OVCAR-4 ovarian): 28.5 µM
- TGI (HL-60(TB) leukemia): > 100 µM
- TGI (HCT-15 colon): 34.6 µM
- TGI (SK-OV-3 ovarian): 34.5 µM
- TGI (HOP-62 NSCLC): 33.2 µM
- TGI (SF-268 CNS): > 100 µM
- TGI (A498 renal): 28.2 µM
- TGI (OVCAR-8 ovarian): 40.6 µM
